# Results published in patent US12504371B2, “System and method of dynamic micro-optical coherence tomography for mapping cellular functions” (The General Hospital Corporation, priority 2020, dated 2025).
# Tests used:
# [1] = test system: MC38 murine tumor; experiment: d-μOCT and CC3 IHC of freshly excised MC38 tumor treated with a drug-containing IMD; assay type: in vivo; conditions: IMD containing doxorubicin, 6 hrs; mid frequency Blue 0.47-0.63 Hz
# Procedure: Dynamic-μOCT has been applied to human biopsies and chemotherapy-treated tumors grown in mouse models. In human biopsies, it is possible to use d-μOCT to distinguish microscopic features (e.g. cell nuclei, organelles, and cell membranes), cellular structures (e.g. squamous, glandular, inflammatory cells), and different cell types that were not evident in corresponding regular μOCT images. Ex vivo experiments were also performed using tumors grown with human cell lines. Custom microdevices containing small amounts of chemotherapeutic drugs were inserted into the tumors. For example, effects of intra-tumoral apoptosis were distinguished with d-μOCT and confirmed with histology images stained with cleaved caspase-3 (CC3), an apoptosis marker.
# Panel (B) is from the same location in the sample. d-μOCT color codes: Red 0-0.08 Hz, Blue 0.47-0.63 Hz, Green 3.98-20 Hz. Bars, 200 μm.
# d-μOCT enables high contrast, subcellular, cross-sectional motility imaging of intact human and animal tissues ex vivo. d-μOCT data (FIGS. 7, 9-16) were obtained using a μOCT benchtop system microscope that employs a supercontinuum-illuminated, common path, spectral domain OCT (SDOCT) system to obtain cross-sectional images with a resolution of 2 μm×2 μm (lateral)×1 μm (axial). The depth of focus was 300 μm, extended by annular apodization of the sample arm's objective lens. […]
# [2] = test system: freshly excised murine liver; experiment: d-μOCT imaging of freshly excised murine liver in blebbistatin; assay type: cell-based; conditions: 30 μM blebbistatin, t=40 minutes vs t=0; Red 0-0.08 Hz, Green 3.98-20 Hz
# Source text: d-μOCT enables high contrast, subcellular, cross-sectional motility imaging of intact human and animal tissues ex vivo. d-μOCT data (FIGS. 7, 9-16) were obtained using a μOCT benchtop system microscope that employs a supercontinuum-illuminated, common path, spectral domain OCT (SDOCT) system to obtain cross-sectional images with a resolution of 2 μm×2 μm (lateral)×1 μm (axial). The depth of focus was 300 μm, extended by annular apodization of the sample arm's objective lens. Images were acquired at an A-line (depth resolved reflectivity profile) rate of 20 KHz and spanned 1 mm laterally. All tissues samples were imaged fresh in culture media (10% FBS/DMEM+1% pen-strep) at 25° C. Two scan modes were used: 1) N=1000 images (512 A-lines/image) acquired sequentially over a period of 25 seconds (FIG. 8, scan mode 1) or 2) N=1000 A-lines acquired sequentially at each lateral scan point (FIG. 8, scan mode 2). Following local elastic unwarping to remove bulk motion caused by evaporation or vibration, a power spectrum estimate (periodogram) was computed on a pixel-per-pixel basis using Welch's method and frequency normalization. For scan mode 1, to represent the data in a single image, low (−0-0.1 Hz), middle (−0.5-0.7 Hz) and high (−4-20 Hz) frequency component images were merged into the RGB channels of a 24-bit color image. […]
SMILES,d-μOCT frequency content compared with cleaved caspase-3 (CC3) IHC [1],change in d-μOCT intracellular motion frequency content [2]
COc1cccc2c1C(=O)c1c(O)c3c(c(O)c1C2=O)C[C@@](O)(C(=O)CO)C[C@@H]3O[C@H]1C[C@H](N)[C@H](O)[C@H](C)O1 [doxorubicin],diffuse region of mid-frequency content (arrow) that mirrors cleaved caspase-3 (CC3) IHC,–
Cc1ccc2c(c1)C(=O)C1(O)CCN(c3ccccc3)C1=N2 (centres unmarked) [blebbistatin],–,dramatic reduction in high frequency (green) and increase in low frequency (red) intracellular motion
